Reference: patent US6680322B2, “Compounds specific to adenosine A1 receptors and uses thereof” (OSI Pharmaceuticals, Inc., priority 1999, dated 2004)

Assays:
[1] = target: T1, human A1 adenosine receptor (Homo sapiens, UniProt P30542); conditions: cited from earlier work
T1 sequence (P30542 1-326): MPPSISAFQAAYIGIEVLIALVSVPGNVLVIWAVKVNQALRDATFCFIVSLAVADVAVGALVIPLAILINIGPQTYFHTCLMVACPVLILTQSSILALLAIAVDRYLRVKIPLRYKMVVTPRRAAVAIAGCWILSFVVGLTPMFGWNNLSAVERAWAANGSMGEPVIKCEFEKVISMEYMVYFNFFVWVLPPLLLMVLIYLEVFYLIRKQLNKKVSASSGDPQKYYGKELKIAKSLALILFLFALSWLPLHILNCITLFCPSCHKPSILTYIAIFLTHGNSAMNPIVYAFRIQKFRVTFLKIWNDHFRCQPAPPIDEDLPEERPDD

[2] = target: T2, human A2a receptor subtype (Homo sapiens, UniProt P29274); test: Adenosine 2a receptor subtype competition radioligand binding ([3H]CGS-21680, HEK293 membranes); conditions: Table 13; % activity @ 10 μM (footnote 8)
T2 construct: expressed in transfected cells; host or cells: HEK-293 (Cadus clone #5)
T2 sequence (P29274 whole entry): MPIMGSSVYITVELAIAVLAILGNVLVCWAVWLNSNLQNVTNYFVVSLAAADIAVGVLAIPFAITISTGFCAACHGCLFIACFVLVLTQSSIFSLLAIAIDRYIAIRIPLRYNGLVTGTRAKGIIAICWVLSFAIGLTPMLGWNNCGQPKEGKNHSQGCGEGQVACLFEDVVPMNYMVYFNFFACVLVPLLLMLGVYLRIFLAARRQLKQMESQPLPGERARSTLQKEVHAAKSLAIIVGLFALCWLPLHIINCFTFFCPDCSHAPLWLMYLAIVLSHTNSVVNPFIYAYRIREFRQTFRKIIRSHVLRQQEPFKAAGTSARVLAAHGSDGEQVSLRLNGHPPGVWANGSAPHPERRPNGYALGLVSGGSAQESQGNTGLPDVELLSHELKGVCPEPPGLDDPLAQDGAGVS

[3] = target: T3, human A1 receptor subtype (Homo sapiens, UniProt P30542)
T3 sequence (P30542 1-326): T1 sequence (P30542 1-326)

[4] = target: T4, human A3 receptor subtype (Homo sapiens, UniProt P0DMS8); test: Adenosine 3 receptor competition radioligand binding ([125I]AB-MECA, HEK293 membranes); conditions: Table 13; % activity @ 10 μM (footnote 8)
T4 construct: expressed in transfected cells; host or cells: HEK293
T4 sequence (P0DMS8 1-318): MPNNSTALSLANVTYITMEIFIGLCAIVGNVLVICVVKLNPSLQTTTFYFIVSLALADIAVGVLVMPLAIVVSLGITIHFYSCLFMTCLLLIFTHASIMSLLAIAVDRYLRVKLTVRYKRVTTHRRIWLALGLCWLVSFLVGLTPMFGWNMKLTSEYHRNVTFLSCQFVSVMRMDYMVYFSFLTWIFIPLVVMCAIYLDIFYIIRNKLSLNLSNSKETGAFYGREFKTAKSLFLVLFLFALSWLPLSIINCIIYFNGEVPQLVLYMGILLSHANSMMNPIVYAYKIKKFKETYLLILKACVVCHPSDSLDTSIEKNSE

| melting point | SMILES | further results |
| --- | --- | --- |
| – | CC(Cc1ccccc1)Nc1ncnc2c1ncn2[C@@H]1O[C@H](CO)[C@@H](O)[C@H]1O (single isomer, unassigned; (-)) [PIA, (−)-N6-(2-phenylisopropyl)-adenosine] | reported affinity [1]: approximately 50 nM |
| 225 to 227 °C | COC(=O)c1cc2c(NC3CCC(O)CC3)nc(-c3ccccc3)nc2[nH]1 (stereo not shown) [Compound 1627, 4-(4-Hydroxy-cyclohexylamino)-2-phenyl-7H-pyrrolo[2,3-d]pyrimidine-6-carboxylic Acid Methyl Ester] | – |
| 268 to 271 °C | NC(=O)[C@@H]1C[C@H](O)CN1c1nc(-c2ccccc2)nc2[nH]ccc12 [Compound 1606, 4-Hydroxy-1-(2-phenyl-7H-pyrrolo[2,3-d]pyrimidin-4-yl]-pyrrolidine-2-carboxylic Acid Amide] | – |
| 210 to 220 °C (dec.) | NC(=O)c1cc2c(NC3CCC(O)CC3)nc(-c3ccccc3)nc2[nH]1 (stereo not shown) [Compound 1630, 4-(4-Hydroxy-cyclohexylamino)-2-phenyl-7H-pyrrolo[2,3-d]pyrimidine-6-carboxylic Acid Amide] | – |
| – | Cc1[nH]c2nc(-c3ccccc3)nc(NCCNC(=O)C3(N)CC3)c2c1C [Compound 1313] | A2a binding, % activity [2]: 65%; A1 binding, % activity ([3]; Table 13, % activity @ 10 μM (footnote 8)): 30% |
| 196 to 197 °C | CC(=O)NCCNc1nc(-c2ccccc2)nc2[nH]c(COc3ccccc3)cc12 [Example 17] | – |
| 220 °C (dec.) | NC(=O)C1CCCN1c1nc(-c2ccccc2)nc2[nH]c(C(=O)O)cc12 (stereo not shown) [Compound 1619, [4-(2-Carbamoylpyrrolidin-1-yl)-2-phenyl-7H-pyrrolo[2,3-d]pyrimidine-6-carboxylic Acid]] | – |
| – | CNC(=O)NCCCNc1nc(-c2ccccc2)nc2[nH]c(C)c(C)c12 [Compound 1310] | A2a binding, % activity [2]: 76% |
| 213 to 215 °C | COCc1cc2c(N3CCCC3C(N)=O)nc(-c3ccccc3)nc2[nH]1 (stereo not shown) [Compound 1605] | – |
| 236 to 238 °C | NC(=O)[C@@H]1CCCN1c1nc(-c2ccccc2)nc2[nH]ccc12 [Compound 1602] | – |
| – | O[C@H]1CC[C@H](Nc2nc(-c3ccccc3)nc3[nH]c(CN4CCOCC4)cc23)CC1 [Compound 1503] | Ki-A1 (selectivity versus A2a, A2b, A3) ([3]; Table 15): * (at least 10 times more selective than other three subtypes) |
| – | O[C@H]1CC[C@H](Nc2nc(-c3ccncc3)nc3[nH]ccc23)CC1 [Compound 1321] | A3 binding, % activity [4]: 54%^8 |
